Data on 14 molecules can be found in PubChem BioAssay (NCI).

SMILES strings stand for the structures.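 Following 48 hours of exposure in 96-well plates, responses at five concentrations were used to interpolate endpoints linearly. The concentration for 50% growth inhibition is given as GI50. TGI is the concentration that stops growth completely.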 A value given as a limit tells only on which side of the number the result lay.

In one assay the test system is OVCAR-4 ovarian. The assay is described as follows: NCI anticancer screen, dose series, 48 h.
`C=CCOc1cccc(/C=C2\SC(=Nc3ccc(O)cc3)NC2=O)c1`: the GI50 was 2.15 µM and the TGI came to 22.8 µM.
For `Oc1cccc2ccc(N/N=C/c3cc(CN4CCCCC4)c(O)c4ncccc34)nc12`, in that order: 0.162 µM and 1.6 µM.
The corresponding values for `COc1cccc(-n2ncc3c(N/N=C/c4ccc(C(=O)NCCN(C)C)cc4)ncnc32)c1` are 3.16 µM and 7.56 µM.
`O=C(NCCCCCCNC(=O)n1cc(F)c(=O)[nH]c1=O)NCCCOCCOCCOCCOCCOCCOCCOCCOCCOCCOCCOCCOCCOCCOCCOCCOCCOCCOCCOCCOCCOCCCNC(=O)C(O)C(O)C(O)C(O)CO` (stereo not given): the TGI was > 100 µM.
On to `COc1cc(C2CC(c3ccc4c(c3)OCO4)=NN2C=O)cc(OC)c1OC` (stereo not given), for which the GI50 was 6.86 µM and the TGI was > 100 µM.
`CCCC(=O)OC1C(C(O)CO)OC2OC(C)(C)OC21` (stereo not given): the TGI was > 100 µM.
As to `COC(=O)[C@H](C[C@H](Cc1ccccc1)NC(=O)c1csc([C@@H](C[C@H](C(C)C)N(C)C(=O)[C@@H](NC(=O)[C@H]2CCCCN2C)C(C)C)OC(C)=O)n1)NC(=O)OCc1ccccc1`, the GI50 was 0.0124 µM and the TGI is > 9 µM.
For `O=C1/C(=C\c2c[nH]c3ccccc23)c2ccccc2N1c1c(Cl)cccc1Cl`, in that order: 2.33 µM and 6.44 µM.
As to `Nc1ccccc1C#C/C=C\C#Cc1cccs1`, the GI50 is 16.2 µM and the TGI was > 50.7 µM.
Turning to `COc1ccc2c(c1)cn1c3ccc(O)cc3nc(N)c21`, the GI50 is 1.57 µM and the TGI was 15.7 µM.
With `OC(c1cc(-c2ccccc2)nc2ccc(Cl)cc12)C1CCCCN1` (stereo not given), the GI50 was 3.24 µM and the TGI worked out at 8.96 µM.
As to `CC#C[C@]1(O)CC[C@H]2[C@@H]3CCC4=CC(=O)CCC4=C3[C@@H](c3ccc4c(c3)OCO4)C[C@@]21C`, the GI50 is 61.1 µM and the TGI was 989 µM.
As to `COc1ccc(OC)c(/C=C2\SC(=S)NC2=O)c1`, the GI50 is 62.9 µM and the TGI is > 100 µM.
For `O=C1c2cccnc2C(=O)c2nc3cc(N4CCN(C5CC5)CC4)ccc3nc21`, in that order: 1.27 µM and 2.55 µM.

The next assay has as its system OVCAR-8 ovarian. The assay is described as follows: NCI anticancer screen, dose series, 48 h.
`C=CCOc1cccc(/C=C2\SC(=Nc3ccc(O)cc3)NC2=O)c1`: the GI50 was 0.813 µM and the TGI is 14 µM.
For `Oc1cccc2ccc(N/N=C/c3cc(CN4CCCCC4)c(O)c4ncccc34)nc12`, the GI50 is 0.0508 µM and the TGI amounted to 2.06 µM.
With `COc1cccc(-n2ncc3c(N/N=C/c4ccc(C(=O)NCCN(C)C)cc4)ncnc32)c1`, the GI50 is 4.19 µM and the TGI came out at 9.27 µM.
As to `O=C(NCCCCCCNC(=O)n1cc(F)c(=O)[nH]c1=O)NCCCOCCOCCOCCOCCOCCOCCOCCOCCOCCOCCOCCOCCOCCOCCOCCOCCOCCOCCOCCOCCOCCCNC(=O)C(O)C(O)C(O)C(O)CO` (stereo not given), the TGI was > 100 µM.
On to `COc1cc(C2CC(c3ccc4c(c3)OCO4)=NN2C=O)cc(OC)c1OC` (stereo not given), for which the GI50 is > 23.3 µM and the TGI was > 100 µM.
Take `CCCC(=O)OC1C(C(O)CO)OC2OC(C)(C)OC21` (stereo not given): the TGI is > 100 µM.
Consider `COC(=O)[C@H](C[C@H](Cc1ccccc1)NC(=O)c1csc([C@@H](C[C@H](C(C)C)N(C)C(=O)[C@@H](NC(=O)[C@H]2CCCCN2C)C(C)C)OC(C)=O)n1)NC(=O)OCc1ccccc1`, for which the GI50 was < 0.0009 µM and the TGI is > 9 µM.
The corresponding values for `O=C1/C(=C\c2c[nH]c3ccccc23)c2ccccc2N1c1c(Cl)cccc1Cl` are 3.26 µM and 11.2 µM.
As for `Nc1ccccc1C#C/C=C\C#Cc1cccs1`, the GI50 was 25 µM and the TGI is > 83.4 µM.
As to `COc1ccc2c(c1)cn1c3ccc(O)cc3nc(N)c21`, the GI50 was 0.375 µM and the TGI turned out to be 4.92 µM.
The corresponding values for `OC(c1cc(-c2ccccc2)nc2ccc(Cl)cc12)C1CCCCN1` (stereo not given) are 2.55 µM and 6.38 µM.
For the molecule `CC#C[C@]1(O)CC[C@H]2[C@@H]3CCC4=CC(=O)CCC4=C3[C@@H](c3ccc4c(c3)OCO4)C[C@@]21C`, the GI50 is 141 µM and the TGI came to 783 µM.
With `COc1ccc(OC)c(/C=C2\SC(=S)NC2=O)c1`, the GI50 is 30.5 µM and the TGI was > 100 µM.
For `O=C1c2cccnc2C(=O)c2nc3cc(N4CCN(C5CC5)CC4)ccc3nc21`, in that order: 1.68 µM and 11.2 µM.

Another assay relates to SNB-19 CNS. The experiment in a line: NCI anticancer screen, dose series, 48 h.
In the case of `C=CCOc1cccc(/C=C2\SC(=Nc3ccc(O)cc3)NC2=O)c1`, the GI50 was 0.531 µM and the TGI was 36.8 µM.
The corresponding values for `Oc1cccc2ccc(N/N=C/c3cc(CN4CCCCC4)c(O)c4ncccc34)nc12` are 0.0413 µM and 18.7 µM.
For `COc1cccc(-n2ncc3c(N/N=C/c4ccc(C(=O)NCCN(C)C)cc4)ncnc32)c1`, in that order: 5.07 µM and 9.75 µM.
In the case of `O=C(NCCCCCCNC(=O)n1cc(F)c(=O)[nH]c1=O)NCCCOCCOCCOCCOCCOCCOCCOCCOCCOCCOCCOCCOCCOCCOCCOCCOCCOCCOCCOCCOCCOCCCNC(=O)C(O)C(O)C(O)C(O)CO` (stereo not given), the TGI is > 100 µM.
Turning to `COc1cc(C2CC(c3ccc4c(c3)OCO4)=NN2C=O)cc(OC)c1OC` (stereo not given), the GI50 was 6.3 µM and the TGI was > 100 µM.
Regarding `CCCC(=O)OC1C(C(O)CO)OC2OC(C)(C)OC21` (stereo not given), the TGI was > 100 µM.
Consider `COC(=O)[C@H](C[C@H](Cc1ccccc1)NC(=O)c1csc([C@@H](C[C@H](C(C)C)N(C)C(=O)[C@@H](NC(=O)[C@H]2CCCCN2C)C(C)C)OC(C)=O)n1)NC(=O)OCc1ccccc1`, for which the GI50 is < 0.0009 µM and the TGI is > 9 µM.
For `O=C1/C(=C\c2c[nH]c3ccccc23)c2ccccc2N1c1c(Cl)cccc1Cl`, in that order: 2.77 µM and 13.5 µM.
For `Nc1ccccc1C#C/C=C\C#Cc1cccs1`, in that order: 43.5 µM and > 100 µM.
On to `COc1ccc2c(c1)cn1c3ccc(O)cc3nc(N)c21`, for which the GI50 is 0.357 µM and the TGI amounted to 25 µM.
For `OC(c1cc(-c2ccccc2)nc2ccc(Cl)cc12)C1CCCCN1` (stereo not given), the GI50 was 1.99 µM and the TGI came to 4.2 µM.
Turning to `CC#C[C@]1(O)CC[C@H]2[C@@H]3CCC4=CC(=O)CCC4=C3[C@@H](c3ccc4c(c3)OCO4)C[C@@]21C`, the GI50 is 174 µM and the TGI is > 1000 µM.
With `COc1ccc(OC)c(/C=C2\SC(=S)NC2=O)c1`, the GI50 was 79.8 µM and the TGI was > 100 µM.
Regarding `O=C1c2cccnc2C(=O)c2nc3cc(N4CCN(C5CC5)CC4)ccc3nc21`, the GI50 was 0.465 µM and the TGI stood at 3.63 µM.

Another assay has as its system SW-620 colon. The experiment in a line: NCI anticancer screen, dose series, 48 h.
As for `C=CCOc1cccc(/C=C2\SC(=Nc3ccc(O)cc3)NC2=O)c1`, the GI50 is 0.383 µM and the TGI is > 80.1 µM.
Take `Oc1cccc2ccc(N/N=C/c3cc(CN4CCCCC4)c(O)c4ncccc34)nc12`: the GI50 was 0.0362 µM and the TGI worked out at 3.52 µM.
The corresponding values for `COc1cccc(-n2ncc3c(N/N=C/c4ccc(C(=O)NCCN(C)C)cc4)ncnc32)c1` are 4.73 µM and 9.06 µM.
In the case of `O=C(NCCCCCCNC(=O)n1cc(F)c(=O)[nH]c1=O)NCCCOCCOCCOCCOCCOCCOCCOCCOCCOCCOCCOCCOCCOCCOCCOCCOCCOCCOCCOCCOCCOCCCNC(=O)C(O)C(O)C(O)C(O)CO` (stereo not given), the TGI was > 100 µM.
On to `COc1cc(C2CC(c3ccc4c(c3)OCO4)=NN2C=O)cc(OC)c1OC` (stereo not given), for which the GI50 was 1.21 µM and the TGI was > 100 µM.
Consider `CCCC(=O)OC1C(C(O)CO)OC2OC(C)(C)OC21` (stereo not given), for which the TGI was > 100 µM.
On to `COC(=O)[C@H](C[C@H](Cc1ccccc1)NC(=O)c1csc([C@@H](C[C@H](C(C)C)N(C)C(=O)[C@@H](NC(=O)[C@H]2CCCCN2C)C(C)C)OC(C)=O)n1)NC(=O)OCc1ccccc1`, for which the GI50 was < 0.0009 µM and the TGI was > 9 µM.
The corresponding values for `O=C1/C(=C\c2c[nH]c3ccccc23)c2ccccc2N1c1c(Cl)cccc1Cl` are 1.9 µM and 3.56 µM.
`Nc1ccccc1C#C/C=C\C#Cc1cccs1`: the GI50 is 14.4 µM and the TGI was determined as 33 µM.
The corresponding values for `COc1ccc2c(c1)cn1c3ccc(O)cc3nc(N)c21` are 0.0388 µM and 5.82 µM.
As to `OC(c1cc(-c2ccccc2)nc2ccc(Cl)cc12)C1CCCCN1` (stereo not given), the GI50 was 1.94 µM and the TGI stood at 3.69 µM.
The corresponding values for `CC#C[C@]1(O)CC[C@H]2[C@@H]3CCC4=CC(=O)CCC4=C3[C@@H](c3ccc4c(c3)OCO4)C[C@@]21C` are 62.3 µM and > 1000 µM.
Turning to `COc1ccc(OC)c(/C=C2\SC(=S)NC2=O)c1`, the GI50 was 60.2 µM and the TGI was > 100 µM.
For the molecule `O=C1c2cccnc2C(=O)c2nc3cc(N4CCN(C5CC5)CC4)ccc3nc21`, the GI50 was 0.409 µM and the TGI was determined as 1.94 µM.

Another assay deals with UO-31 renal. The assay is described as follows: NCI anticancer screen, dose series, 48 h.
For the molecule `C=CCOc1cccc(/C=C2\SC(=Nc3ccc(O)cc3)NC2=O)c1`, the GI50 is 0.832 µM and the TGI was 2.51 µM.
As for `Oc1cccc2ccc(N/N=C/c3cc(CN4CCCCC4)c(O)c4ncccc34)nc12`, the GI50 was 0.0292 µM and the TGI is 1.71 µM.
For `COc1cccc(-n2ncc3c(N/N=C/c4ccc(C(=O)NCCN(C)C)cc4)ncnc32)c1`, in that order: 1.64 µM and 5.88 µM.
Consider `O=C(NCCCCCCNC(=O)n1cc(F)c(=O)[nH]c1=O)NCCCOCCOCCOCCOCCOCCOCCOCCOCCOCCOCCOCCOCCOCCOCCOCCOCCOCCOCCOCCOCCOCCCNC(=O)C(O)C(O)C(O)C(O)CO` (stereo not given), for which the TGI was > 100 µM.
On to `COc1cc(C2CC(c3ccc4c(c3)OCO4)=NN2C=O)cc(OC)c1OC` (stereo not given), for which the GI50 is 3.81 µM and the TGI is > 100 µM.
For the molecule `CCCC(=O)OC1C(C(O)CO)OC2OC(C)(C)OC21` (stereo not given), the TGI was > 100 µM.
Turning to `COC(=O)[C@H](C[C@H](Cc1ccccc1)NC(=O)c1csc([C@@H](C[C@H](C(C)C)N(C)C(=O)[C@@H](NC(=O)[C@H]2CCCCN2C)C(C)C)OC(C)=O)n1)NC(=O)OCc1ccccc1`, the GI50 was 0.0111 µM and the TGI was > 9 µM.
For `O=C1/C(=C\c2c[nH]c3ccccc23)c2ccccc2N1c1c(Cl)cccc1Cl`, in that order: 1.4 µM and 3.23 µM.
As for `Nc1ccccc1C#C/C=C\C#Cc1cccs1`, the GI50 was 8.77 µM and the TGI is > 43.5 µM.
The corresponding values for `COc1ccc2c(c1)cn1c3ccc(O)cc3nc(N)c21` are 0.148 µM and 10.3 µM.
For `OC(c1cc(-c2ccccc2)nc2ccc(Cl)cc12)C1CCCCN1` (stereo not given), in that order: 1.73 µM and 4.19 µM.
As to `CC#C[C@]1(O)CC[C@H]2[C@@H]3CCC4=CC(=O)CCC4=C3[C@@H](c3ccc4c(c3)OCO4)C[C@@]21C`, the GI50 was 49.6 µM and the TGI was 218 µM.
In the case of `COc1ccc(OC)c(/C=C2\SC(=S)NC2=O)c1`, the GI50 is 33.6 µM and the TGI is > 100 µM.
For `O=C1c2cccnc2C(=O)c2nc3cc(N4CCN(C5CC5)CC4)ccc3nc21`, in that order: 0.259 µM and 1.92 µM.
